Results published in ChEMBL document CHEMBL4325859, “Research advances on anticancer activities of matrine and its derivatives: An updated overview” (Eur J Med Chem, 2019).
Values after ≈ are worked out from the molar mass of the structure shown.

Columns and labels:
[1] = tested on: SAOS-2; experiment: Growth inhibition of human Saos2 cells after 48 hrs by MTT assay; type: functional, cell-based; settings: SAOS-2, 48 h
[2] = tested on: HT-29; experiment: Growth inhibition of human HT-29 cells at 8 ml/L after 24 hrs by MTT assay relative to control; type: functional
[3] = Growth inhibition of human GRC1 cells at 1 g/L after 24 hrs by MTT assay relative to control; type: functional; settings: read-out: GI
[4] = tested on: HT-29; experiment: Growth inhibition of human HT-29 cells after 24 hrs by MTT assay; type: functional, cell-based; settings: HT-29, 24 h
[5] = tested on: Ca-Ski; experiment: Antiproliferative activity against human CaSki cells after 48 hrs by CCK8 assay; type: functional, cell-based
[6] = tested on: PC-3; experiment: Induction of apoptosis in human PC3 cells assessed as late apoptotic cells at 75 mg/mL (reference value: 2.5%); type: functional
[7] = tested on: PC-3; experiment: Induction of apoptosis in human PC3 cells assessed as late apoptotic cells at 50 mg/mL (reference value: 2.5%); type: functional
[8] = tested on: RD; experiment: Induction of apoptosis in human RD cells at 1 mg/ml after 24 hrs by Annexin V-FITC/propidium iodide staining based flow cytometry relative to control; type: functional
[9] = tested on: HepG2; experiment: Antiproliferative activity against human HepG2 cells at 0.8 mg/ml after 48 hrs relative to control; type: functional
[10] = tested on: HT-29; experiment: Growth inhibition of human HT-29 cells at 2 ml/L after 36 hrs by MTT assay relative to control; type: functional
[11] = tested on: HT-29; experiment: Growth inhibition of human HT-29 cells at 16 mg/ml after 48 hrs by MTT assay relative to control; type: functional; settings: HT-29, 48 h, read-out: GI
[12] = tested on: MCF7; experiment: Antiproliferative activity against human MCF7 cells after 24 hrs relative to control; type: functional
[13] = Growth inhibition of human GRC1 cells at 0.5 g/L after 48 hrs by MTT assay relative to control; type: functional; settings: read-out: GI
[14] = tested on: U-266; experiment: Antiproliferative activity against human U266 cells after 24 hrs by MTT assay; type: functional, cell-based; settings: U-266, 24 h
[15] = tested on: MCF7; experiment: Antiproliferative activity against human MCF7 cells after 48 hrs relative to control; type: functional
[16] = target: ATP-dependent translocase ABCB1 (Homo sapiens, UniProt P08183); experiment: Reversal of P-gp-mediated drug resistance in human MCF7/ADR cells assessed as increase in adriamycin accumulation at 0.2 mg/ml relative to control; type: cell-based
Sequence of ATP-dependent translocase ABCB1 (P08183 whole entry): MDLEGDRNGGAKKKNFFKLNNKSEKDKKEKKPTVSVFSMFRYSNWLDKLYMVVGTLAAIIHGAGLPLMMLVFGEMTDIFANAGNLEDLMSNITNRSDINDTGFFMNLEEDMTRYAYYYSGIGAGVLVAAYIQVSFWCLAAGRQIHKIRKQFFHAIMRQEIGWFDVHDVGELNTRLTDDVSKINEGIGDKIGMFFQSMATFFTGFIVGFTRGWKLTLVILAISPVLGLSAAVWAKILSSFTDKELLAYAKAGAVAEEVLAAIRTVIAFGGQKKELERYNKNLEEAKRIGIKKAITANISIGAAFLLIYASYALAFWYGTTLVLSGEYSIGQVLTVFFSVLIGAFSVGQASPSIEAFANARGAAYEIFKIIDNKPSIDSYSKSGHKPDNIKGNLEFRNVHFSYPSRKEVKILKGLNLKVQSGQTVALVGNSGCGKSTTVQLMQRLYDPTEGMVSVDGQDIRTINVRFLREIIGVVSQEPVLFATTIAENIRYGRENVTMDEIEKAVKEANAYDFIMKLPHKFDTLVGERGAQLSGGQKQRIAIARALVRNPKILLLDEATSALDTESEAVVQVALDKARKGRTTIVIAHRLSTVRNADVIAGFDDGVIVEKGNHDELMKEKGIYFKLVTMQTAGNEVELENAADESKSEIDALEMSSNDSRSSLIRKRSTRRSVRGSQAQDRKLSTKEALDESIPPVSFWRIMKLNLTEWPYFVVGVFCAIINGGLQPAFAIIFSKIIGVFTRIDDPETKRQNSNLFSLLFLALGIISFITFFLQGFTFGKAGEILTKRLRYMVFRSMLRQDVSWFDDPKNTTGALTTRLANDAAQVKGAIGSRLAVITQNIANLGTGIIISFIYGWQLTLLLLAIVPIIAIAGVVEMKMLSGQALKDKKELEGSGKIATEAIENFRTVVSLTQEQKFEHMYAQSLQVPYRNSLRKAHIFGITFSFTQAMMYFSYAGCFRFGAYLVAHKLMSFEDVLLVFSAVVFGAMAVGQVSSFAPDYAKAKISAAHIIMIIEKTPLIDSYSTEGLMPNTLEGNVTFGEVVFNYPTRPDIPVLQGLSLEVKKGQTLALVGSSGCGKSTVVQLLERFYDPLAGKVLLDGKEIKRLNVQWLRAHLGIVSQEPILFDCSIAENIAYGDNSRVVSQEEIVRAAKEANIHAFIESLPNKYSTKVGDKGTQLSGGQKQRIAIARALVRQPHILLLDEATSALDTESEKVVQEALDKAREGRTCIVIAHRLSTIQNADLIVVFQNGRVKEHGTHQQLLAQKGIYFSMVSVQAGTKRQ

[17] = tested on: A549; experiment: Antiproliferative activity against human A549 cells at 1.5 g/L after 12 to 48 hrs by MTT assay relative to control; type: functional
[18] = tested on: LoVo; experiment: Antiproliferative activity against human LoVo cells after 24 hrs by MTT assay; type: functional, cell-based
[19] = tested on: U2OS; experiment: Growth inhibition of human U2OS cells at 3.2 mg/ml after 48 hrs by MTT assay relative to control; type: functional; settings: read-out: GI
[20] = Growth inhibition of human GRC1 cells at 1 g/L after 48 hrs by MTT assay relative to control; type: functional; settings: read-out: GI
[21] = tested on: HT-29; experiment: Growth inhibition of human HT-29 cells at 32 mg/ml after 48 hrs by MTT assay relative to control; type: functional; settings: HT-29, 48 h, read-out: GI
[22] = tested on: HepG2; experiment: Antiproliferative activity against human HepG2 cells at 1 mg/ml after 24 hrs by MTT assay relative to control; type: functional
[23] = Growth inhibition of human GRC1 cells at 0.5 g/L after 96 hrs by MTT assay relative to control; type: functional; settings: read-out: GI
[24] = tested on: PANC-1; experiment: Antiproliferative activity against human PANC1 cells after 72 hrs by MTT assay; type: functional, cell-based; settings: PANC-1, 72 h
[25] = tested on: KYSE-150 cell line; experiment: Antiproliferative activity against human KYSE-150 cells assessed as cell viability at 1.5 mg/ml after 24 hrs by MTT assay relative to control; type: functional; settings: KYSE-150, 24 h, read-out: Activity
[26] = tested on: RPMI-8226; experiment: Induction of apoptosis in human RPMI8226 cells at 1500 mg/L after 48 hrs by Annexin V/propidium iodide staining based flow cytometry (reference value: 3.02 +/- 1.19%); type: functional
[27] = tested on: HT-29; experiment: Growth inhibition of human HT-29 cells at 32 ml/L after 48 hrs by MTT assay relative to control; type: functional
[28] = tested on: M21; experiment: Induction of apoptosis in human M21 cells at 0.4 mg/ml after 48 hrs by Annexin V-FITC/propidium iodide staining based flow cytometry relative to control; type: functional
[29] = tested on: HeLa; experiment: Induction of apoptosis in human HeLa cells at 25 ug/ml after 48 hrs by Annexin V-FITC/propidium iodide staining based flow cytometry relative to control; type: functional
[30] = tested on: NB-4; experiment: Induction of apoptosis in human NB4 cells after 24 hrs by Annexin V-FITC/propidium iodide staining based flow cytometry relative to control; type: functional
[31] = tested on: HOS; experiment: Growth inhibition of human HOS cells at 3.2 mg/ml after 48 hrs by MTT assay relative to control; type: functional; settings: read-out: GI
[32] = tested on: C-33-A; experiment: Induction of apoptosis in human C33A cells at 50 ug/ml after 48 hrs by Annexin V-FITC/propidium iodide staining based flow cytometry relative to control; type: functional
[33] = tested on: CCRF-CEM; experiment: Antiproliferative activity against human CCRF-CEM cells after 72 hrs by WST1 assay; type: functional, cell-based
[34] = Growth inhibition of human GRC1 cells at 0.3 g/L after 72 hrs by MTT assay relative to control; type: functional; settings: read-out: GI
[35] = Growth inhibition of human GRC1 cells at 0.8 g/L after 96 hrs by MTT assay relative to control; type: functional; settings: read-out: GI
[36] = tested on: RPMI-8226; experiment: Antiproliferative activity against human RPMI8226 cells after 48 hrs by MTT assay; type: functional, cell-based; settings: RPMI-8226, 48 h
[37] = tested on: BXPC-3; experiment: Induction of apoptosis in human BxPC3 cells at 1.25 mg/ml by flow cytometry (reference value: 2.81%); type: functional
[38] = tested on: HK-2; experiment: Antiproliferative activity against human HK2 cells after 48 hrs by CCK8 assay; type: functional, cell-based; settings: HK-2, 48 h
[39] = tested on: NB-4; experiment: Antiproliferative activity against human NB4 cells after 24 hrs by MTT assay; type: functional, cell-based; settings: NB-4, 24 h
[40] = tested on: RD; experiment: Induction of apoptosis in human RD cells at 1.5 mg/ml after 24 hrs by Annexin V-FITC/propidium iodide staining based flow cytometry relative to control; type: functional
[41] = tested on: HepG2; experiment: Induction of apoptosis in human HepG2 cells at 1 mg/ml by Annexin V-FITC/propidium iodide staining based flow cytometry (reference value: 0.14%); type: functional
[42] = tested on: UMR108; experiment: Growth inhibition of rat UMR108 cells assessed as cell proliferation at 1.5 mg/ml after 48 hrs by MTT assay (reference value: 0.404 +/- 0.008%); type: functional; settings: UMR108, 48 h, read-out: Activity
[43] = tested on: U-266; experiment: Induction of apoptosis in human U266 cells at 2 g/L after 48 hrs by Annexin V-FITC/propidium iodide staining based flow cytometry (Rvb < 3%); type: functional
[44] = tested on: HOS; experiment: Growth inhibition of human HOS cells at 0.8 mg/ml after 48 hrs by MTT assay relative to control; type: functional; settings: read-out: GI
[45] = tested on: U-266; experiment: Antiproliferative activity against human U266 cells after 48 hrs by MTT assay; type: functional, cell-based; settings: U-266, 48 h
[46] = Growth inhibition of human GRC1 cells at 0.8 g/L after 24 hrs by MTT assay relative to control; type: functional; settings: read-out: GI

O=C1CCC[C@@H]2[C@H]3CCCN4CCC[C@@H](CN12)[C@@H]34 [MATRINE]
IC50 [1]: 4.27 mM
growth inhibition (GI) [2]: 45.96%
inhibition of growth at 1000 µg/mL [3]: 23.6%
IC50 [4]: 6.32 to 50.3 mM
IC50 [5]: 5.8 mM
Activity [6]: 15.1%
Activity [7]: 21%
Activity [8]: 26.5%
Activity [9]: 44.03%
growth inhibition (GI) [10]: 22.06%
inhibition of growth at 16000 µg/mL [11]: 75.8%
Activity [12]: 6.01 - 37.01%
inhibition of growth at 500 µg/mL [13]: 12.3%
IC50 [14]: 2180 µg/mL (≈ 8.78 mM)
Activity [15]: 7.56 - 53.92%
fold change (FC) [16]: 3.56
Activity [17]: 30%
IC50 [18]: 4.63 mM
inhibition of growth at 3200 µg/mL [19]: 77%
inhibition of growth at 1000 µg/mL [20]: 25.4%
inhibition of growth at 32000 µg/mL [21]: 84.2%
Activity [22]: 6.28%
inhibition of growth at 500 µg/mL [23]: 22.4%
IC50 [24]: 3.66 mM
viability at 1500 µg/mL [25]: 64%
Activity [26]: 31.1%
growth inhibition (GI) [27]: 84.2%
Activity [28]: 34.8%
Activity [29]: 8.91%
Activity [30]: 33%
inhibition of growth at 3200 µg/mL [31]: 57%
Activity [32]: 15.37%
IC50 [33]: 9.63 mM
inhibition of growth at 300 µg/mL [34]: 14.9%
inhibition of growth at 800 µg/mL [35]: 36.2%
IC50 [36]: 1640 µg/mL (≈ 6.6 mM)
Activity [37]: 33.67%
IC50 [38]: 4.71 mM
IC50 [39]: 2660 nM
Activity [40]: 40.1%
Activity [41]: 34.36%
growth at 1500 µg/mL [42]: 0.205%
Activity [43]: 71.05%
inhibition of growth at 800 µg/mL [44]: 10%
IC50 [45]: 1580 µg/mL (≈ 6.36 mM)
inhibition of growth at 800 µg/mL [46]: 20.5%
